The structures appear in SMILES notation. Entries after “also recorded” stand apart in the source; their conditions may differ. Bounds are passed on as bounds.

Assay [1] concerns inactivated Influenza A virus [A/California/04/2009 (H1N1) pdm09]. In words: Antigen-specific antibody production in mice immunized with IIAV plus adjuvant (ELISA). It counts as in vivo, BALB/c mice. The following applies: for total IgG levels: liposomal formulation.
For a further assay, the system named is influenza virus. As to the kind of experiment: Immunization with low dose recombinant hemagglutinin (rHA) and lethal virus challenge. The following applies: rHA 0.2 μg/injection. The assay is classed as in vivo, mice. Here is the method: To assess profile of protective immune responses against influenza virus infection induced by TLR4/TLR7 agonist-combined adjuvant, mice were immunized with low dose (0.2 μg/injection) recombinant hemagglutinin (rHA) and humoral responses and protection against lethal virus challenge (FIGS. 34A-2D).

For assay [2], the system named is THP-1 cells and human primary cells. In words: In vitro immunoactivity / agonistic potency in human cells. It counts as cell-based. The following applies: THP-1 and human primary cells.
In the next assay the test system is murine primary cells. As to the kind of experiment: In vitro immunoactivity / agonistic potency in murine cells. It counts as cell-based, mouse.
The subject of another assay is ovalbumin. As to the kind of experiment: In vivo vaccination study with model antigen ovalbumin. The following applies: ovalbumin as antigen.
For assay [3], the target named is T1, TLR4 (Homo sapiens, UniProt O00206+Q9Y6Y9). The assay is classed as cell-based.
Target sequence in this assay (O00206 24-839): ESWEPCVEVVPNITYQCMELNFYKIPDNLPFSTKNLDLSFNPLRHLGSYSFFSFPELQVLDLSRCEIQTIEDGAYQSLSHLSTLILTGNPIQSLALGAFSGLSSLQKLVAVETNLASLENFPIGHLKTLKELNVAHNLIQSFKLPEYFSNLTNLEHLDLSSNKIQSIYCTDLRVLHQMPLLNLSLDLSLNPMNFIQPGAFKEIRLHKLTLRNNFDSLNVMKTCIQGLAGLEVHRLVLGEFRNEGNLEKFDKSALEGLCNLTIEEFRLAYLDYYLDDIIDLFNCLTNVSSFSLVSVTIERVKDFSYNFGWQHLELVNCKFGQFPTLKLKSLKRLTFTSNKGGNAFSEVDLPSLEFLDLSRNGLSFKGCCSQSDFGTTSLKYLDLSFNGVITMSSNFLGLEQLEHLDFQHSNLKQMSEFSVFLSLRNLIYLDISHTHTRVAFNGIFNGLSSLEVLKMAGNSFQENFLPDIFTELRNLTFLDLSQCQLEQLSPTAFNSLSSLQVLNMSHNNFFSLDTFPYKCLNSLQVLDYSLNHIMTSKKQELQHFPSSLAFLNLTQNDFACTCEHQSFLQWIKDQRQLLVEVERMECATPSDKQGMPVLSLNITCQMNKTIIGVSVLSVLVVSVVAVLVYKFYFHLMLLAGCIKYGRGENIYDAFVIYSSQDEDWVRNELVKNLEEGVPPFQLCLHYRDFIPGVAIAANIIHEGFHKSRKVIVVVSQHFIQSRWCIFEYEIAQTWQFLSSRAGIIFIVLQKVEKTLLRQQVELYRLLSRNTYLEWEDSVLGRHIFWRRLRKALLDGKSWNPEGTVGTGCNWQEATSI
Target sequence in this assay (Q9Y6Y9 17-160): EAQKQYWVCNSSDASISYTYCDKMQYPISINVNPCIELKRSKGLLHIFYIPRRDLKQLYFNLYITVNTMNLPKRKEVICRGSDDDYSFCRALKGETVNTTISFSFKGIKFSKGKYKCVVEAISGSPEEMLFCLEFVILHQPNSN
The subject of a further assay is IGH genes, TCRα and TCRβ. As to the kind of experiment: NGS assay for BCR and TCR repertoire of inguinal lymph nodes. The assay is classed as in vivo, BALB/c mice. The note with it: day 28.
The next assay addresses mouse TLR4 (Mus musculus, UniProt Q9JHF9+Q9QUK6). The assay is classed as cell-based.
The next assay has as its system IL-8. In words: IL-8, human (Tables 1-3). It counts as cell-based. The following applies: Compound 1 = 100.
The next assay concerns IP-10. As to the kind of experiment: IP-10, mouse (Tables 1-3). The assay is classed as cell-based. The note with it: Compound 1 = 100.
Assay [4] deals with T2, TLR4 (Mus musculus, UniProt Q9JHF9+Q9QUK6).
T2 sequence (Q9QUK6 26-835): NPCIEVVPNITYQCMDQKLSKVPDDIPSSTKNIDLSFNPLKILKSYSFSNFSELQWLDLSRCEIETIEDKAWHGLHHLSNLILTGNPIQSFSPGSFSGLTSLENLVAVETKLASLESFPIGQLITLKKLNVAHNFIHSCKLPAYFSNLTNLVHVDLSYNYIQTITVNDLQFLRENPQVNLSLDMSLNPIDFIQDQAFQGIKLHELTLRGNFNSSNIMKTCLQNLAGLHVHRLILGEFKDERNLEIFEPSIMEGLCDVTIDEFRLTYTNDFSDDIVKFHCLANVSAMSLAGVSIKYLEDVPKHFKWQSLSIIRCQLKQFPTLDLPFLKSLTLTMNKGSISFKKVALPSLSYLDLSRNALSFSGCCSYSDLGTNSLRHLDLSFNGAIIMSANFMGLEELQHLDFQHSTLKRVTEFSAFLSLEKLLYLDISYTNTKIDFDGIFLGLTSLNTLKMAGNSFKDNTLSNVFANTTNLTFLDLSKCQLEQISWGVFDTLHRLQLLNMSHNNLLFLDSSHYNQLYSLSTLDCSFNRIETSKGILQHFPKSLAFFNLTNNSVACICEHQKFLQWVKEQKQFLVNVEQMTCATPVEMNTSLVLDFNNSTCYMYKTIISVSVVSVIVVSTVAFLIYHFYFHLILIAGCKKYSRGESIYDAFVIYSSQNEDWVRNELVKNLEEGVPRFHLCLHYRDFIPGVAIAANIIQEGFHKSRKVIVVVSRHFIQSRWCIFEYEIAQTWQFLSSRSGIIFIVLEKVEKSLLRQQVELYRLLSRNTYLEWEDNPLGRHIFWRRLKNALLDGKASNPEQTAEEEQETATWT
T2 sequence (Q9JHF9 19-160): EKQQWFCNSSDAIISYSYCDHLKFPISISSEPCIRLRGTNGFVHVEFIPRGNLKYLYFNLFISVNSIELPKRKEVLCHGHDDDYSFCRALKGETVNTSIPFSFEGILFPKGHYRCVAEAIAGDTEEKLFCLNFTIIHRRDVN
In words: TLR4, mouse (Tables 1-3). The assay is classed as cell-based. The note with it: Compound 1 = 100.

Assay [5] has as its target T1, TLR4. In words: TLR4, human (Tables 1-3). It counts as cell-based. The following applies: Compound 1 = 100.
Target sequence in this assay (O00206 24-839): as the sequence (O00206 24-839) above
Target sequence in this assay (Q9Y6Y9 17-160 limits assumed): as the sequence (Q9Y6Y9 17-160) above
A further assay has as its system IL-6. As to the kind of experiment: IL-6, mouse (Tables 1-3). The assay is classed as cell-based. The following applies: Compound 1 = 100.
[6] abbreviates: single adjuvant, DMSO formulation, sera day 28.
[7] abbreviates: TLR4 agonist combined with 1V270, DMSO-water formulation, sera day 28.
[8] abbreviates: single adjuvant, DMSO formulation, i.m. days 0 and 21, sera day 28.
The mark [9] stands for this setting: Table 1, R^3 series, footnotes not given.

Turning to `CCCCCCCCC=CCCCCCCCC(=O)OCC(COP(=O)(O)OCCNC(=O)c1ccc(Cn2c(=O)[nH]c3c(N)nc(OCCOC)nc32)cc1)OC(=O)CCCCCCCC=CCCCCCCCC` (stereo not shown) [Compound 1V270], the “IgG2a:IgG1 ratio (Th1/Th2 immune balance)” value in [1] (DMSO-water formulation, individual animals) is given as “significantly shifted the Th2-biased immune responses by 1Z105 or 2B182C”. In assay [1] (sera day 28), the “total IgG levels” value is reported as “comparable”. For the same compound, the “anti-HA IgG2a” value in [1] (setting [6]) is “significantly increased anti-HA; also recorded: induced only anti-HA IgG2a production”. For the same compound, the “Th1/Th2 bias of immune response” value in the assay on influenza virus is reported as “induced Th1 biased immune responses”.

Take `Cn1c2ccccc2c2nc(SCC(=O)NC3CCCCC3)n(-c3ccccc3)c(=O)c21` [Compound 1Z105]: the “immunoactivity / agonistic potency in human cells” value in assay [2] was “devoid of significant activity in human cells”. The “anti-HA and anti-NA IgG2a” value in assay [1] (setting [7]) is given as “failed in most cases; also recorded: failed to enhance IgG2a production induced by 1V270”. The “anti-HA and anti-NA IgG1” value in assay [1] (setting [8]) is “significantly higher levels of IgG1 against HA and NA”. The “immunoactivity / agonistic potency in murine cells” value in the assay on murine primary cells is listed as “good immunoactivity in murine cells”.

Consider `Cn1c2ccc(-c3ccco3)cc2c2nc(SCC(=O)NC3CCCCC3)n(-c3ccccc3)c(=O)c21` [Compound 2B182C], for which the “immunoactivity / agonistic potency in human cells” value in assay [2] was “higher agonistic potency than 1Z105”. The “anti-HA and anti-NA IgG1” value in [1] (setting [7]) is “significantly higher IgG1 compared to 1Z105”; in assay [1] (setting [8]), “significantly higher levels of IgG1 against HA and NA; also recorded: significantly increased IgG1 antibody against both HA and NA”; in assay [1] (single adjuvant, DMSO formulation, i.m. days 0 and 21, sera day 28, listed as 2B182c), “higher level of antigen specific IgG1”. In addition, the “anti-HA and anti-NA IgG2a” value in assay [1] (setting [7]) is “increased the levels of anti HA- and anti NA-Abs”. Also, the “total IgG levels” value in [1] (sera day 28) is “comparable”. The “anti-NA IgG2a” value was “enhanced anti-NA Abs; also recorded: enhanced anti-NA specific IgG2a” in assay [1] (setting [6]); “higher level of antigen specific IgG1 and anti-NA IgG2a” in [1] (single adjuvant, DMSO formulation, sera day 28, listed as 2B182c). In assay [1] (setting [6]), the “antigen specific IgM” value is “only slightly increased”. The “immunoactivity / agonistic potency in murine cells” value in the assay on murine primary cells is given as “higher agonistic potency than 1Z105”. Further, in the assay with ovalbumin, the “serum IgG1 levels” value is “induced higher serum IgG1 levels”. Besides, the “antigen-specific IgG2a” value in the assay on ovalbumin (with 1V270) is reported as “additively enhance the release of antigen-specific IgG2a induced by 1V270”. Besides, the “EC50 in human TLR4 reporter cells in comparison with EC50 of 1Z105” value at TLR4 [3] is 870 fold. For the same compound, in the assay with IGH genes, TCRα and TCRβ, the “TCR clonality (TCRα and TCRβ)” value is given as “increased”. In addition, at mouse TLR4, the “EC50 in murine TLR4 reporter cells in comparison with EC50 of 1Z105” value was found to be 5.8 fold.

On to `Cc1ccc(-n2c(SCC(=O)NC3CCCCC3)nc3c([nH]c4ccccc43)c2=O)cc1` [Compound 38], for which the “human IL-8” value with IL-8 (Table 3, R^1 series) came out at 6. Besides, the “mouse IP-10” value in the assay with IP-10 (Table 3, R^1 series) was under 1. Moreover, at TLR4 [4] (Table 3, R^1 series), the “mouse TLR4” value was 2. Further, on TLR4 [5] (Table 3, R^1 series), the “human TLR4” value was found to be 2. Besides, the “mouse IL-6” value in the assay on IL-6 (Table 3, R^1 series) is given as under 1.

Take `O=C(CSc1nc2c([nH]c3ccccc32)c(=O)n1-c1ccc2ccccc2c1)NC1CCCCC1` [Compound 39]: the “human IL-8” value in the assay with IL-8 (Table 3, R^1 series) is recorded as under 1. Also, the “mouse IP-10” value in the assay on IP-10 (Table 3, R^1 series) is reported as under 1. Further, the “mouse TLR4” value on TLR4 [4] (Table 3, R^1 series) is 6. The “human TLR4” value at TLR4 [5] (Table 3, R^1 series) turned out to be 3. In the assay with IL-6 (Table 3, R^1 series), the “mouse IL-6” value worked out at 3.

For `O=C(CSc1nc2c([nH]c3ccccc32)c(=O)n1CCc1ccccc1)NC1CCCCC1` [Compound 40], the “human IL-8” value in the assay on IL-8 (Table 3, R^1 series) stood at 5. Besides, the “mouse IP-10” value in the assay on IP-10 (Table 3, R^1 series) was under 1. For the same compound, the “mouse TLR4” value at TLR4 [4] (Table 3, R^1 series) is recorded as 1. The “human TLR4” value on TLR4 [5] (Table 3, R^1 series) was 1. Moreover, in the assay on IL-6 (Table 3, R^1 series), the “mouse IL-6” value is under 1.

In the case of `Cn1c2ccccc2c2nc(SCC(=O)NC3CCCCC3)n(-c3ccccc3)c(=O)c21` [Compound 42], the “human IL-8” value with IL-8 (Table 1, R^3 series) is listed as 79. Besides, in the assay on IP-10 (Table 1, R^3 series), the “mouse IP-10” value is 99. Further, the “mouse TLR4” value on TLR4 [4] (Table 1, R^3 series) is 100. Besides, on TLR4 [5] (Table 1, R^3 series), the “human TLR4” value is 92. Further, the “mouse IL-6” value in the assay with IL-6 (setting [9]) stood at 101.

For the compound `CCCCCn1c2ccccc2c2nc(SCC(=O)NC3CCCCC3)n(-c3ccccc3)c(=O)c21` [Compound 49], in the assay with IL-8 (Table 1, R^3 series), the “human IL-8” value was found to be 1. Besides, in the assay on IP-10 (Table 1, R^3 series), the “mouse IP-10” value is reported as under 1. Moreover, the “mouse TLR4” value on TLR4 [4] (Table 1, R^3 series) turned out to be 6. For the same compound, the “human TLR4” value at TLR4 [5] (Table 1, R^3 series) amounted to 11. In addition, the “mouse IL-6” value in the assay on IL-6 (setting [9]) came to 5.

In the case of `CCCCCCCCCCCCn1c2ccccc2c2nc(SCC(=O)NC3CCCCC3)n(-c3ccccc3)c(=O)c21` [Compound 50], the “human IL-8” value in the assay with IL-8 (Table 1, R^3 series) is recorded as under 1. Also, the “mouse IP-10” value with IP-10 (Table 1, R^3 series) is under 1. The “mouse TLR4” value on TLR4 [4] (Table 1, R^3 series) is listed as 4. Moreover, the “human TLR4” value at TLR4 [5] (Table 1, R^3 series) came to 10. In addition, in the assay on IL-6 (setting [9]), the “mouse IL-6” value is listed as under 1.

Turning to `N#CCn1c2ccccc2c2nc(SCC(=O)NC3CCCCC3)n(-c3ccccc3)c(=O)c21` [Compound 51], the “human IL-8” value with IL-8 (Table 1, R^3 series) was determined as 30. For the same compound, the “mouse IP-10” value with IP-10 (Table 1, R^3 series) worked out at 64. In addition, the “mouse TLR4” value on TLR4 [4] (Table 1, R^3 series) was determined as 55. In addition, on TLR4 [5] (Table 1, R^3 series), the “human TLR4” value worked out at 19. The “mouse IL-6” value in the assay with IL-6 (setting [9]) is 98.

(Values after US20220152188A1, “TLR4-TLR7 LIGAND FORMULATIONS AS VACCINE ADJUVANTS” (The Regents of the University of California, priority 2019, published 2022).)
